Measured values from the supplement of paper PMC13380429.

Key:
Settings in all cases: 72 h
HepG2 [1] = assay: cell viability relative to DMSO; higher = less toxic
Calu-3 [2] = assay: as above
Caco-2 [3] = assay: as above
U2OS [4] = assay: as above
Vero E6 [5] = assay: as above
HepG2 [6] = assay: drug sensitivity score (DSS) for viability; higher = more toxic; extreme values may be limits of the assay
Calu-3 [7] = assay: as above
Caco-2 [8] = assay: as above
U2OS [9] = assay: as above
Vero E6 [10] = assay: as above
HepG2 [11] = assay: relative viability EC50 (midpoint between 100% and the lowest measured viability); higher = less toxic
Calu-3 [12] = assay: as above
Caco-2 [13] = assay: as above
U2OS [14] = assay: as above
Vero E6 [15] = assay: as above

Structure (SMILES)	cell viability (HepG2 [1]; 1 nM)	cell viability (HepG2 [1]; 10 nM)	cell viability (HepG2 [1]; 100 nM)	cell viability (HepG2 [1]; 1000 nM)	cell viability (HepG2 [1]; 10000 nM)	cell viability (Calu-3 [2]; 1 nM)	cell viability (Calu-3 [2]; 10 nM)	cell viability (Calu-3 [2]; 100 nM)	cell viability (Calu-3 [2]; 1000 nM)	cell viability (Calu-3 [2]; 10000 nM)	cell viability (Caco-2 [3]; 1 nM)	cell viability (Caco-2 [3]; 10 nM)	cell viability (Caco-2 [3]; 100 nM)	cell viability (Caco-2 [3]; 1000 nM)	cell viability (Caco-2 [3]; 10000 nM)	cell viability (U2OS [4]; 1 nM)	cell viability (U2OS [4]; 10 nM)	cell viability (U2OS [4]; 100 nM)	cell viability (U2OS [4]; 1000 nM)	cell viability (U2OS [4]; 10000 nM)	cell viability (Vero E6 [5]; 1 nM)	cell viability (Vero E6 [5]; 10 nM)	cell viability (Vero E6 [5]; 100 nM)	cell viability (Vero E6 [5]; 1000 nM)	cell viability (Vero E6 [5]; 10000 nM)	drug sensitivity score (HepG2 [6])	drug sensitivity score (Calu-3 [7])	drug sensitivity score (Caco-2 [8])	drug sensitivity score (U2OS [9])	drug sensitivity score (Vero E6 [10])	relative viability EC50 (HepG2 [11])	relative viability EC50 (Calu-3 [12])	relative viability EC50 (Caco-2 [13])	relative viability EC50 (U2OS [14])	relative viability EC50 (Vero E6 [15])
O=C(O)C(F)(F)C(F)(F)C(F)(F)C(F)(F)C(F)(F)C(F)(F)C(F)(F)F [ammonium-perfluorocaprylate]	113%	105%	97.3%	99.5%	102%	98%	110%	100%	93.6%	99.3%	96%	96%	107%	95.4%	103%	104%	95.2%	101%	92.7%	104%	98.2%	99.5%	99.8%	100%	96%	0	0	0	0	0	> 10 µM	> 10 µM	> 10 µM	> 10 µM	> 10 µM
COc1ccccc1CC(=N)N1C[C@@H]2C(=O)CCC(c3ccccc3)(c3ccccc3)[C@@H]2C1	93%	95.9%	88.2%	106%	105%	94.1%	88.4%	98.3%	109%	86.6%	96.6%	96.5%	95.3%	109%	98.4%	103%	95.1%	101%	101%	93.8%	94.3%	101%	94.7%	95.9%	110%	0	0	0	0	0	> 10 µM	> 10 µM	> 10 µM	> 10 µM	> 10 µM
C=CCN1C[C@H](C(=O)N(CCCN(C)C)C(=O)NCC)C[C@@H]2c3cccc4[nH]cc(c34)C[C@H]21 [cabergoline]	89.3%	95.2%	106%	92.8%	90.7%	106%	99.7%	97.1%	107%	99.4%	108%	95.2%	83%	89%	89.5%	101%	100%	96.5%	101%	103%	103%	98%	88.9%	96.1%	95.7%	0	0	4	0	0	> 10 µM	> 10 µM	> 10 µM	> 10 µM	> 10 µM
C[C@@H](N)[C@H]1CC[C@H](C(=O)Nc2ccncc2)CC1	97.8%	96.8%	95.2%	84.5%	99.3%	84.6%	97.2%	104%	114%	122%	101%	95.3%	96.2%	104%	108%	99%	102%	91.1%	102%	92%	97.8%	99.1%	96.4%	93.7%	92.2%	0	0	0	0	0	> 10 µM	> 10 µM	> 10 µM	> 10 µM	> 10 µM
Cc1cc(NCCO)nc(-c2ccc(Br)cc2)n1	97.4%	98.9%	86.9%	95.8%	94.3%	105%	87.6%	99.5%	109%	98.1%	95.3%	91.8%	104%	93.1%	97%	99.5%	100%	99.7%	95.8%	99.7%	102%	101%	93.1%	93.9%	84.6%	0	0	0	0	0.3	> 10 µM	> 10 µM	> 10 µM	> 10 µM	> 10 µM
COc1ccc(OC[C@@H]2c3cc(OC)c(OC)cc3CCN2C(=O)c2cccc(Cl)c2)cc1 [CIQ]	101%	96.5%	91.4%	89.9%	106%	100%	102%	100%	109%	92.7%	101%	102%	91.8%	101%	76.4%	96.6%	100%	93.9%	104%	91.3%	100%	97.4%	93.7%	94%	98.6%	0	0	0.8	0	0	> 10 µM	> 10 µM	> 10 µM	> 10 µM	> 10 µM
O=S(=O)(c1ccccc1)N(CC(F)(F)F)c1ccc(C(O)(C(F)(F)F)C(F)(F)F)cc1	97.1%	107%	94.3%	87.4%	78.3%	107%	96.5%	99.2%	98.2%	99.7%	96%	89.8%	93.9%	87.5%	87.5%	104%	101%	102%	97.7%	96.5%	103%	102%	98.1%	101%	98.8%	1.8	0	0.5	0	0	> 10 µM	> 10 µM	> 10 µM	> 10 µM	> 10 µM
O=S(=O)(O)c1cc(O)ccc1O [etamsylate]	107%	105%	110%	108%	97.8%	95.6%	100%	106%	95%	95.3%	89.7%	100%	91%	98.8%	92.4%	92.5%	98.3%	95.7%	99%	104%	96.2%	94.5%	104%	94.5%	106%	0	0	0	0	0	> 10 µM	> 10 µM	> 10 µM	> 10 µM	> 10 µM
O=C(NCCN1CCOCC1)c1ccc(Cl)cc1 [moclobemide]	99.4%	94.4%	108%	98.3%	103%	93.5%	103%	92.9%	103%	106%	88.4%	99.2%	90.7%	88.9%	94.1%	92.6%	98.9%	96.3%	103%	106%	98.5%	93.3%	98.5%	95.9%	110%	0	0	0	0	0	> 10 µM	> 10 µM	> 10 µM	> 10 µM	> 10 µM
N#CC(c1ccnc(OCc2ccc(CN3CCOCC3)cc2)n1)c1nc2ccccc2s1 (stereo not given) [PGL5001]	98.4%	102%	104%	89.6%	80.9%	112%	104%	107%	98.5%	102%	103%	86%	98.4%	97%	83.5%	102%	97.5%	98.7%	103%	92%	99.8%	98.3%	93.1%	101%	98.8%	1.5	0	0.3	0	0	> 10 µM	> 10 µM	> 10 µM	> 10 µM	> 10 µM
C=CCN1CC[C@]23CCCC[C@H]2[C@H]1Cc1ccc(O)cc13 [levallorphan]	102%	105%	94.2%	98.9%	88.8%	108%	97%	99.8%	101%	104%	94.6%	105%	108%	95.6%	104%	98.6%	93.8%	97.3%	102%	103%	101%	103%	99.3%	105%	101%	0	0	0	0	0	> 10 µM	> 10 µM	> 10 µM	> 10 µM	> 10 µM
NC(=O)c1[nH]cnc1O [SM-108]	95%	93.9%	95.8%	102%	98.7%	96.2%	89%	101%	107%	99.8%	91.2%	101%	102%	104%	97.9%	100%	95.7%	104%	96.6%	104%	102%	108%	99.7%	103%	100%	0	0	0	0	0	> 10 µM	> 10 µM	> 10 µM	> 10 µM	> 10 µM
COc1ccc2nc3cc(Cl)ccc3c(Nc3cc(CN4CCCC4)c(O)c(CN4CCCC4)c3)c2n1 [pyronaridine]	105%	87%	99.8%	90.5%	-0.1%	102%	111%	95.5%	104%	46.4%	99.2%	95.8%	100%	87.9%	29.4%	98.3%	104%	97.2%	102%	31.7%	104%	102%	108%	96.7%	0.1%	7.1	2.5	5.9	3.6	6	2.38 µM	3.54 µM	1.87 µM	3.34 µM	2.93 µM
Nc1ccc([As](=O)(O)O)cc1 [arsanilic-acid]	110%	103%	98.2%	99.3%	104%	114%	87.2%	101%	98.1%	97.7%	108%	81.2%	86.6%	81.9%	95.8%	107%	107%	104%	97.5%	103%	99.5%	98.8%	95.4%	97.1%	96.4%	0	0	6	0	0	> 10 µM	> 10 µM	> 10 µM	> 10 µM	> 10 µM
